This passage reports IC50 results from patent publication US10793576B2, “Compound used as Bruton's tyrosine kinase inhibitor and preparation method and application thereof” (Chengdu Brilliant Pharmaceutical Co., LTD., priority 2017, dated 2020).

One experiment has as its system DOHH2 cells. Briefly: Cell proliferation inhibition in vitro, DOHH2 cells by CTG assay. To be noted: Homo sapiens, DOHH-2, 72 hours, read-out: Inhibitions of cell activities IC50 (nM) DOHH2. The class given is cell-based. The protocol:
(§1) Test Example 2: Determination of the Inhibition of Cell Proliferation Inhibitory Activity in
(§2) vitro of compounds using different cell lines
(§3) 2: Preparation of the Compounds:
(§4) The compounds to be tested were diluted with DMSO to prepare a mother liquor at a final concentration of 10 mM for later use.
3.2 Test of DOHH2 Cells by CTG Assay
(§5) Logarithmic growth phase cells were collected, counted and resuspended in complete medium. The cell concentration was adjusted to a suitable concentration (determined according to the cell density optimization test results), and seeded to 96-well plate and 100 μl of the cell suspension was added to each well. The cells were incubated in an incubator at 37° C., 100% relative humidity and 5% C02 for 24 hours.
The compounds to be tested were diluted with the medium to the set corresponding action concentration, and the cells were added at 10 µl/well. The cells were incubated in an incubator set at 37° C., 100% relative humidity and 5% C02 for 72 hours.
The medium was aspirated and discarded, and 30 μl of test reagent was added. The plate was gentle shaken away from the light to lyse the cells.
(§6) As: OA of the sample (cell+test reagent+test compound)
(§7) Ac: OA of the negative control (cell+test reagent+DMSO)
(§8) Ab: OA of the positive control (medium+test reagent+DMSO)
(§9) IC50 curve fitting was performed using the software Graphpad Prism 5 or XLfit and IC50 values were calculated.

A further experiment addresses BTK kinase (Homo sapiens (Human), UniProt Q06187). As to the kind of experiment: In vitro assay for the inhibition of BTK kinase activity (Mobility-Shift Assay). The class given is biochemical. An excerpt:
Mobility-Shift Assay, which is microfluidic chip technology, applies the basic concept of capillary electrophoresis to microfluidic environments. The substrate used for the experiment is a polypeptide with a fluorescent label. Under the action of enzyme in the reaction system, the substrate is transformed into a product, and the charge the substrate carries also changes accordingly. The use of the charge difference between the substrate and the product involved in Mobility-Shift Assay achieves the separating of the two, and they are tested respectively. The test results are expressed by conversion rates.
(3) 100% DMSO was added to the positive control well and the negative control well, respectively;

A further experiment concerns TMD8 cells. As to the kind of experiment: Cell proliferation inhibition in vitro, TMD8 cells by CCK-8 method. It is filed as cell-based. To be noted: Homo sapiens, 72 hours, read-out: Inhibitions of cell activities IC50 (nM) TMD8. Here is the method: as §1, §2, §3, §4
(§10) 3.1. Test of TMD8 and OCI-ly10 Cells by CCK-8 Method
as §5
(§11) The compounds to be tested were diluted with the medium to the set corresponding action concentration, and the cells were added at 25 µl/well. The cells were incubated in an incubator at 37° C., 100% relative humidity and 5% C02 for 72 hours.
(§12) The medium was aspirated and discarded, and a complete medium containing 10% of the test reagent was added and the obtained system was incubated in a 37° C. incubator for 1 hour-4 hours.
as §6, §7, §8, §9
(In general: Tetrazolium dyes change colour on reduction, which living cells bring about.)

Another experiment deals with OCI-LY10 cells. As to the kind of experiment: Cell proliferation inhibition in vitro, OCI-ly10 cells by CCK-8 method. It is filed as cell-based. Conditions: Homo sapiens, 72 hours, read-out: Inhibitions of cell activities IC50 (nM) OCI-LY10. Here is the method:
as §1, §2, §3, §4, §10, §5, §11, §12, §6, §7, §8, §9

For orientation: IC50 means the concentration needed to halve the response being measured.

BTK kinase, sequence (Q06187 whole entry): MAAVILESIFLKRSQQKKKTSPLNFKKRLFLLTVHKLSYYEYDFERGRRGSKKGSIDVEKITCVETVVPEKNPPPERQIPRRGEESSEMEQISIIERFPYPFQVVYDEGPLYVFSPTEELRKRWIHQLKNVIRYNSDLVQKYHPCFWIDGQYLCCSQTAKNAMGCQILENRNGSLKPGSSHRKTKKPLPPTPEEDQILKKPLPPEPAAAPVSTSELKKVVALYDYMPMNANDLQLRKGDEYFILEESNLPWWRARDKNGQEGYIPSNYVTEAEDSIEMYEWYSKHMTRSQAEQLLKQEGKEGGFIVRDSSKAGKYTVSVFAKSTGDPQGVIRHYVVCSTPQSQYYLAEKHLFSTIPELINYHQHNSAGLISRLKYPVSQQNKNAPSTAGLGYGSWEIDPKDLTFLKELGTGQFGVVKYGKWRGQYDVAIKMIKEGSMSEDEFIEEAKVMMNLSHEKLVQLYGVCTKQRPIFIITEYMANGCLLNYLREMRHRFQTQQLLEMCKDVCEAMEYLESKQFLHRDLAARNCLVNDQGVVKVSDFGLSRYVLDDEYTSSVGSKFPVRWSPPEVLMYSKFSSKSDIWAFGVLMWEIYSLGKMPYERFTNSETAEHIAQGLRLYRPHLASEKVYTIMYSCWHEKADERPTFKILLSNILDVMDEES

With `CC#CC(=O)N1C2C[C@@H](C1c1nc(-c3ccc(C(=O)Nc4ccccn4)cc3)c3c(N)nccn13)N(C(C)C)C2` (some centres unmarked) [Example 17], the IC50 in the experiment on DOHH2 cells was > 1000 nM; at BTK kinase it was 48 nM.
For the compound `CC#CC(=O)N1C2CN[C@@H](C2)C1c1nc(-c2ccc(C(C)(O)c3ccccc3)cc2)c2c(N)nccn12` (some centres unmarked) [Example 87], the IC50 came out at 786 nM in the experiment on DOHH2 cells and 42 nM on BTK kinase.
In the case of `C=CC(=O)N1C2C[C@@H](C1c1nc(-c3ccc(C(=O)Nc4cc(C(F)(F)F)ccn4)cc3)c3c(N)nccn13)N(C)C2` (some centres unmarked) [Example 54], the 50% inhibitory concentration (IC50) in the experiment with DOHH2 cells is 143 nM; in the experiment with TMD8 cells, 0.15 nM; on BTK kinase it was 1.5 nM; in the experiment on OCI-LY10 cells, 0.64 nM.
Regarding `C=CC(=O)N1CC2CCCC2C1c1nc(-c2ccc(C(=O)Nc3cc(C(F)(F)F)ccn3)cc2)c2c(N)nccn12` (centres unmarked) [Example 42], the half-inhibitory concentration (IC50) in the experiment on DOHH2 cells came out at 104 nM; in the experiment on TMD8 cells it was 0.26 nM; at BTK kinase, 5.3 nM; with OCI-LY10 cells, 0.33 nM.
With `CC#CC(=O)N1C2CCC1(c1nc(-c3ccc(Oc4ccccc4)cc3)c3c(N)nccn13)COC2` (centres unmarked) [Example 105], the IC50 with DOHH2 cells was 916 nM; in the experiment on TMD8 cells, 8.4 nM; at BTK kinase it was 18 nM; with OCI-LY10 cells it was 0.41 nM.
Turning to `C=CC(=O)N1CC2(CC2)C[C@H]1c1nc(-c2ccc(C(=O)Nc3ccccn3)cc2)c2c(N)nccn12` [Example 2, (S)-4-(3-(5-acryloyl-5-azaspiro[2.4]heptan-6-yl)-8-aminoimidazo[1,5-a]pyrazin-1-yl)-N-(pyridin-2-yl)benzamide], the figures for the half-inhibitory concentration (IC50) in the experiment with DOHH2 cells and at BTK kinase were 917 nM and 24 nM, respectively.
In the same order, the values of `CC#CC(=O)N1CC2(CC2)C[C@H]1c1nc(-c2ccc(C(=O)Nc3ccccn3)cc2)c2c(N)nccn12` [Example 1, (S)-4-(8-amino-3-(5-(but-2-ynoyl)-5-azaspiro[2.4]heptan-6-yl)imidazo[1,5-a]pyrazin-1-yl)-N-(pyridin-2-yl)benzamide] are > 1000 nM and 83 nM.
In the case of `C=CC(=O)N1C2C[C@@H](C1c1nc(-c3ccc(C(C)(O)c4ccccc4)cc3)c3c(N)nccn13)N(C(C)C)C2` (some centres unmarked) [Example 89], the 50% inhibitory concentration (IC50) in the experiment with DOHH2 cells stood at 96 nM; with TMD8 cells it was 2.4 nM; at BTK kinase, 14 nM; in the experiment on OCI-LY10 cells, 0.23 nM.
Take `C=CC(=O)N1C2CN[C@@H](C2)C1c1nc(-c2ccc(C(=O)Nc3cc(C)ccn3)cc2)c2c(N)nccn12` (some centres unmarked) [Example 66]: the IC50 with DOHH2 cells is > 1000 nM; on BTK kinase, 34 nM.
In the case of `C=CC(=O)N1CC2CCC1(c1nc(-c3ccc(C(=O)Nc4ccccn4)cc3)c3c(N)nccn13)CC2` [Example 120, 4-(3-(2-acryloyl-2-azabicyclo[2.2.2]octan-1-yl)-8-aminoimidazo[1,5-a]pyrazin-1-yl)-N-(pyridin-2-yl)benzamide], the concentration for half-maximal inhibition (IC50) stood at 921 nM in the experiment with DOHH2 cells, 6.4 nM in the experiment with TMD8 cells, 24 nM at BTK kinase and 4.1 nM in the experiment with OCI-LY10 cells.
For `C=CC(=O)N1C2CC[C@@H](C2)C1c1nc(-c2ccc(C(=O)Nc3cc(C(F)(F)F)ccn3)cc2)c2c(N)nccn12` (some centres unmarked) [Example 46], the IC50 with DOHH2 cells was found to be 94.3 nM; with TMD8 cells it was 3.4 nM; on BTK kinase, 4.2 nM; in the experiment on OCI-LY10 cells, 0.37 nM.
For `C=CC(=O)N1CCC2CC21c1nc(-c2ccc(C(=O)Nc3ccccn3)cc2)c2c(N)nccn12` (centres unmarked) [Example 32], the 50% inhibitory concentration (IC50) was > 1000 nM with DOHH2 cells and 57 nM on BTK kinase.
In the case of `C=CC(=O)N1C2CC[C@@H](C2)C1c1nc(-c2ccc(C(=O)Nc3cc(C)ccn3)cc2)c2c(N)nccn12` (some centres unmarked) [Example 62], the 50% inhibitory concentration (IC50) in the experiment on DOHH2 cells stood at 179 nM; in the experiment with TMD8 cells, 2.8 nM; on BTK kinase, 13 nM; in the experiment on OCI-LY10 cells, 3.9 nM.
In the same order, the values of `CC#CC(=O)N1C[C@H]2[C@@H]([C@H]1c1nc(-c3ccc(C(=O)Nc4ccccn4)cc3)c3c(N)nccn13)C2(C)C` [Example 6] are > 1000 nM, 5.4 nM, 9.1 nM and 0.21 nM.
In the case of `CC#CC(=O)N1C2CN[C@@H](C2)C1c1nc(-c2ccc(Oc3ccccc3)cc2)c2c(N)nccn12` (some centres unmarked) [Example 107], the IC50 in the experiment with DOHH2 cells was 986 nM; in the experiment on TMD8 cells, 12.3 nM; at BTK kinase, 41 nM; in the experiment on OCI-LY10 cells, 0.81 nM.
For `C=CC(=O)N1C[C@H]2[C@@H](C1c1nc(-c3ccc(C(=O)Nc4cc(C(F)(F)F)ccn4)cc3)c3c(N)nccn13)C2(C)C` (some centres unmarked) [Example 44], the IC50 in the experiment on DOHH2 cells stood at 717 nM; in the experiment with TMD8 cells, 7.8 nM; at BTK kinase, 34 nM; in the experiment on OCI-LY10 cells, 1.3 nM.
Take `CC#CC(=O)N1C2CN[C@@H](C2)C1c1nc(-c2ccc(C(=O)Nc3cc(C)ccn3)cc2)c2c(N)nccn12` (some centres unmarked) [Example 67]: the IC50 in the experiment on DOHH2 cells is > 1000 nM; on BTK kinase, 69 nM.
`C=CC(=O)N1C2CN[C@@H](C2)C1c1nc(-c2ccc(C(C)(O)c3ccccc3)cc2)c2c(N)nccn12` (some centres unmarked) [Example 86]: the IC50 in the experiment with DOHH2 cells was 917 nM; at BTK kinase, 29 nM.
As to `CC#CC(=O)N1CC2CCC1(c1nc(-c3ccc(C(=O)Nc4ccccn4)cc3)c3c(N)nccn13)CC2` [Example 121, 4-(8-amino-3-(2-(but-2-ynoyl)-2-azabicyclo[2.2.2]octan-1-yl)imidazo[1,5-a]pyrazin-1-yl)-N-(pyridin-2-yl)benzamide], on BTK kinase, the 50% inhibitory concentration (IC50) was 43 nM.
`C=CC(=O)N1C(c2nc(-c3ccc(C(=O)Nc4cc(C(F)(F)F)ccn4)cc3)c3c(N)nccn23)CC2CC21` (centres unmarked) [Example 50]: on BTK kinase, the IC50 was found to be 69 nM.
Still for that read-out and setting: for `C=CC(=O)N1CCC2(CC1)CC(c1nc(-c3ccc(C(=O)Nc4ccccn4)cc3)c3c(N)nccn13)CO2` (centres unmarked) [Example 26] the value was 477 nM; for `CC#CC(=O)N1C(c2nc(-c3ccc(C(C)(O)c4ccccc4)cc3)c3c(N)nccn23)CC2CC21` (centres unmarked) [Example 82], 382 nM; for `CC#CC(=O)N1CC2CCC1(c1nc(-c3ccc(C(=O)Nc4ccccn4)cc3)c3c(N)nccn13)C2` (centres unmarked) [Example 123, 4-(8-amino-3-(2-(but-2-ynoyl)-2-azabicyclo[2.2.1]heptan-1-yl)imidazo[1,5-a]pyrazin-1-yl)-N-(pyridin-2-yl)benzamide], 72 nM.
Still for that read-out and setting: for `C=CC(=O)NC12CC3CC(C1)CC(c1nc(-c4ccc(C(=O)Nc5ccccn5)cc4)c4c(N)nccn14)(C3)C2` [Example 28] the value was 124 nM; for `CC#CC(=O)N1CC2CCCC2C1c1nc(-c2ccc(C(C)(O)c3ccccc3)cc2)c2c(N)nccn12` (centres unmarked) [Example 78], 18.4 nM.
Take `CC#CC(=O)N1CC2CCC2(c2nc(-c3ccc(C(=O)Nc4ccccn4)cc3)c3c(N)nccn23)C1` (centres unmarked) [Example 35]: the half-inhibitory concentration (IC50) at BTK kinase is 67 nM.
Same read-out and setting: for `C=CC(=O)N1CC2(CCNCC2)CC1c1nc(-c2ccc(C(=O)Nc3ccccn3)cc2)c2c(N)nccn12` (centres unmarked) [Example 36] the value was 93 nM; for `C=CC(=O)N1CC2(CC2)C[C@H]1c1nc(-c2ccc(C(=O)Nc3cc(C(F)(F)F)ccn3)cc2)c2c(N)nccn12` [Example 41, (S)-4-(3-(5-acryloyl-5-azaspiro[2.4]heptan-6-yl)-8-aminoimidazo[1,5-a]pyrazin-1-yl)-N-(4-(trifluoromethyl)pyridin-2-yl)benzamide], 52 nM.
As for `CC#CC(=O)N1CCC2CC21c1nc(-c2ccc(C(=O)Nc3ccccn3)cc2)c2c(N)nccn12` (centres unmarked) [Example 33], at BTK kinase, the concentration for half-maximal inhibition (IC50) was found to be 94 nM.
Still for that read-out and setting: to `CC#CC(=O)N1CCC2CC21c1nc(-c2ccc(C(=O)Nc3cc(C(F)(F)F)ccn3)cc2)c2c(N)nccn12` (centres unmarked) [Example 59] belongs 97 nM.
